The values below come from patent US20100179143A1, “NAPHTHYRIDINE, DERIVATIVES AS P13 KINASE INHIBITORS” (Smithkline Beecham Corporation, priority 2007, published 2010).

Read-outs that look alike come from different tables or passages of the source.

Experiment [1] deals with T1, PI3Kα (Homo sapiens, UniProt P42336).
T1 construct: His
Nature of the experiment: PI3K alpha Leadseeker SPA Assay. The experiment is classed as biochemical. The conditions noted are these: in at least one experimental run; read-out: IC50 against PI3Kα. On the procedure:
PI3K alpha Leadseeker SPA Assay
Compounds of the present invention were tested according to the following assays and found as inhibitors of PI3 kinases, particularly PI3Kα. The exemplified compounds were tested and found active against PI3Kα. The IC50's ranged from about 1 nM to 10 μM.
SPA imaging beads are microspheres containing scintillant which emit light in the red region of the visible spectrum. As a result, these beads are ideally suited to use with a CCD imager such as the Viewlux. The Leadseeker beads used in this system are polystyrene beads that have been coupled with polyethyleneimine. When added to the assay mixture, the beads absorb both the substrate (PIP2) and product (PIP3). Adsorbed P^33-PIP3 will cause an increase in signal, measured as ADUs (analog to digital units). This protocol details the use of the PEI-PS Leadseeker beads for assays using His-p110/p85 PI3K alpha.
Solid compounds are typically plated with 0.1 μl of 100% DMSO in all wells (except column 6 and 18) of a 384-well, flat bottom, low volume plate (Greiner 784075). The compounds are serially diluted (3-fold in 100% DMSO) across the plate from column 1 to column 12 and column 13 to column 24 and leave column 6 and 18 containing only DMSO to yield 11 concentrations for each test compound.
The assay buffer contains MOPS (pH 6.5), CHAPS, and DTT. PI3K alpha and PIP2 (L-alpha-D-myo-Phosphatidylinositol 4,5-bisphosphate [P1(4,5)P2]3-O-phospho linked, D(+)-sn-1,2-di-O-octanoylglyceryl, CellSignals #901) are mixed and incubated in the plate with compound for 30 min prior to starting the reaction with the addition of P^33-ATP and MgCl2 (reagents added using Zoom). Enzyme-free wells (column 18) are typically done to determine the low control. PEI-PS Leadseeker beads in PBS/EDTA/CHAPS are added (by Multidrop) to quench the reaction, and the plates are allowed to incubate for at least one hour (typically overnight) before centrifugation. The signal is determined using a Viewlux detector and is then imported into curve fitting software (Activity Base) for construction of concentration response curves. The percent inhibition of activity was calculated relative to high controls (C1, 0.1 μl DMSO in column 6, rows A-P)) and low controls (C2, 5 μl of 40 uM PIP2 in buffer in column 18, rows A-P) using, 100*(1−(U1−C2)/(C1-C2)). The concentration of test compound yielding 50% inhibition was determined using the equation, y=((Vmax*x)/(K+x))+Y2, where “K” was equal to the IC50. The IC50 values were converted to pIC50 values, i.e., −log IC50 in Molar concentration.

Experiment [2] deals with neutrophils. To be noted: cited from earlier work.
For experiment [3], the target named is CK2 protein kinase. To be noted: read-out: inhibition of CK2 protein kinase; cited from earlier work.
Experiment [4] deals with Class I PI3-kinases. To be noted: cited from earlier work.
The test system of experiment [5] is neutrophils. The conditions noted are these: treatment of neutrophils; Thelen et al. 1994; cited from earlier work.

T1 sequence (P42336 whole entry): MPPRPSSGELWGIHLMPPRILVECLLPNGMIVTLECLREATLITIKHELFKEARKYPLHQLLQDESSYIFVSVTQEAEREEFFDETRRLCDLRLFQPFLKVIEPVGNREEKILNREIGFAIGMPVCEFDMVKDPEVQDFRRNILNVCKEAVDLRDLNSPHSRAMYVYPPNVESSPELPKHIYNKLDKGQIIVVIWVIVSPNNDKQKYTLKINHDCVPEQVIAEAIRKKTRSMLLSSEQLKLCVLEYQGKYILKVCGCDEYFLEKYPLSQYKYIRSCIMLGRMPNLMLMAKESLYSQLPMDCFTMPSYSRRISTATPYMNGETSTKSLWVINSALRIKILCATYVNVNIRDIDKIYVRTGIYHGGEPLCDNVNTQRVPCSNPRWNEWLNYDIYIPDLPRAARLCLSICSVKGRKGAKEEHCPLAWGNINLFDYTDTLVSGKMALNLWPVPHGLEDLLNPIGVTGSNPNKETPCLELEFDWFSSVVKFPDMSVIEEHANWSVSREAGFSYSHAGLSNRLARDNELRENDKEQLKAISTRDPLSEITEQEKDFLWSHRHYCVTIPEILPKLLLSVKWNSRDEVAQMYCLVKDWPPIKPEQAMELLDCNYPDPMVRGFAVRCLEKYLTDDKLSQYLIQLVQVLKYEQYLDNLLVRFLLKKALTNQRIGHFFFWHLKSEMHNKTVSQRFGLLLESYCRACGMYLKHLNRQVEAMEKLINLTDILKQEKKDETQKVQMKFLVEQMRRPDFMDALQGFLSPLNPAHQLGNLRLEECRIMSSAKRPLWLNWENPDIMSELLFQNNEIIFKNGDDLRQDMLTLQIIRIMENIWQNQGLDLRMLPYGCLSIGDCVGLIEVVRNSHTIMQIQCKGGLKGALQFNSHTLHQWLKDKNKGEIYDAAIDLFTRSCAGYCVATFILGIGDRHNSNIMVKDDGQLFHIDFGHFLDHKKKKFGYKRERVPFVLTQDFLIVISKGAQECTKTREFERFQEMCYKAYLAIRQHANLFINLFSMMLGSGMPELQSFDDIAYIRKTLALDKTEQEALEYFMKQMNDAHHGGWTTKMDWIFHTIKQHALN
T1 sequence (P27986 whole entry partner): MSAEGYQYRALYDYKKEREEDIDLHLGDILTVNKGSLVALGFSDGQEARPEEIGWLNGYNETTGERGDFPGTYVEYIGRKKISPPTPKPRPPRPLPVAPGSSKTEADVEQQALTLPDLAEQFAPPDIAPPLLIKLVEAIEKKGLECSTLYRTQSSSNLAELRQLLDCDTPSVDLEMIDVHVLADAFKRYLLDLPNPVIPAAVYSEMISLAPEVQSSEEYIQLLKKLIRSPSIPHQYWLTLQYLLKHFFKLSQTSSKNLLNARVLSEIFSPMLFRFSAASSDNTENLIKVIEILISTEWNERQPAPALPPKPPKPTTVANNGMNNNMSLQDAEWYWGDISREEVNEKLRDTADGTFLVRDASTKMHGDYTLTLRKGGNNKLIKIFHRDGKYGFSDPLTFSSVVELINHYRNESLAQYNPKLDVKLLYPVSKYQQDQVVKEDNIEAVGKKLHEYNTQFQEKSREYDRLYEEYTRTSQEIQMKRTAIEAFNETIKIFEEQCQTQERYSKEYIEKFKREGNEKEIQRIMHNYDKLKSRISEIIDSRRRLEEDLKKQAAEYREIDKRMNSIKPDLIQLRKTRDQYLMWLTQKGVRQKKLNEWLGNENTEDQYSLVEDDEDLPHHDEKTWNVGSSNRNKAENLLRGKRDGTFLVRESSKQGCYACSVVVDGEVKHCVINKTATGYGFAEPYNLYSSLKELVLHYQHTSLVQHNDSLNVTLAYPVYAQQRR

With `OCc1ccc(-c2ccc3nccc(-c4ccncc4)c3n2)o1` [Example 1, {5-[8-(4-pyridinyl)-1,5-naphthyridin-2-yl]-2-furanyl}methanol], the IC50 in experiment [1] was 40 nM.

Regarding `CN(C)S(=O)(=O)c1cc(-c2ccc3nccc(-c4ccncc4)c3n2)cnc1N` [Example 2, 2-amino-N,N-dimethyl-5-[8-(4-pyridinyl)-1,5-naphthyridin-2-yl]-3-pyridinesulfonamide], in experiment [1], the IC50 is 3 nM. On the same count and under the same terms, in the case of `c1ccc(-c2n[nH]cc2-c2ccc3nccc(-c4ccncc4)c3n2)cc1` [Example 5, 2-(3-phenyl-1H-pyrazol-4-yl)-8-(4-pyridinyl)-1,5-naphthyridine] it was 31 nM; in that of `NS(=O)(=O)c1cncc(-c2ccc3nccc(-c4cccc(OC(F)(F)F)c4)c3n2)c1` [Example 9, 5-(8-{3-[(trifluoromethyl)oxy]phenyl}-1,5-naphthyridin-2-yl)-3-pyridinesulfonamide], 27 nM; in that of `CS(=O)(=O)Nc1ccc(-c2ccnc3ccc(-c4cncc(S(N)(=O)=O)c4)nc23)cc1` [Example 11, 5-(8-{4-[(methylsulfonyl)amino]phenyl}-1,5-naphthyridin-2-yl)-3-pyridinesulfonamide], 6 nM.

For `CN1CCN(c2ccnc3ccc(-c4cncc(S(=O)(=O)Nc5ccc(F)cc5F)c4)nc23)CC1` [Example 32, N-(2,4-difluorophenyl)-5-[8-(4-methyl-1-piperazinyl)-1,5-naphthyridin-2-yl]-3-pyridinesulfonamide], the IC50 in experiment [1] amounted to 50 nM. `O=c1cc(N2CCOCC2)oc2c(-c3ccccc3)cccc12` [LY294002]: in experiment [2], the neutrophil migration result is “block” and the superoxide release entry is “block”. Moreover, in experiment [3], the IC50 is 5 to 10 µM. The IC50 in experiment [4] (Fruman et al. 1998, read-out: IC50 against each of these PI3-kinases) is 15 to 20 µM. On to `COC[C@H]1OC(=O)c2coc3c2[C@@]1(C)C1=C(C3=O)[C@@H]2CCC(=O)[C@@]2(C)C[C@H]1OC(C)=O` [wortmannin], for which, in experiment [5], the “fMLP-induced respiratory burst response” value is recorded as “prevents the fMLP-induced respiratory burst response”. Moreover, in experiment [2], the neutrophil migration entry is reported as “block” and the superoxide release result is “block”. Besides, the IC50 in experiment [4] (wortmannin, read-out: IC50 against each of the various Class I PI3-kinases) is 0.001 to 0.01 µM.
